Results as given in US11419843B2, “Small molecule BCL-2 functional converters as cancer therapeutics” (Oregon State University, priority 2016, dated 2022).

Tests used:
[1] = tested on: H460 parental and resistant cells; experiment: Colony formation (2D clonogenic, 3D soft agar) of H460 parental and resistant cells; format: cell-based, human; conditions: treated continuously for 14 days
From the text: Colony forming ability (%) relative to vehicle treatment. Representative of three independent conducted assays in triplicate.

[2] = tested on: MDA-MB-468 parental and paclitaxel resistant cells; experiment: Clonogenic survival of MDA-MB-468 parental and resistant cells; format: cell-based, human; conditions: treated continuously for 14 days
From the text: FIG. 29B is the results of clonogenic survival assays in MDA-MB-468 parental and resistant cells treated continuously for 14 days with vehicle, or indicated concentration of paclitaxel. Colony forming ability (%) relative to vehicle treatment. Representative of three independent assays conducted in triplicate.

[3] = tested on: MDA-MB-468 parental and derived paclitaxel or doxorubicin resistant cells; experiment: Viability of MDA-MB-468 parental and derived resistant cells; format: cell-based, human
Protocol: Percentage viability relative to vehicle treatment. Representative of three independent assays in triplicate.
Percentage viability relative to vehicle treatment.
Percentage viability relative to vehicle treatment. Representative of three independent assays conducted in triplicate.
Cells of interest were plated at 2000 cells per well in 96-well black tissue culture plate and allowed to adhere to the plate overnight. Viability assays were performed using 10% serum medium unless otherwise stated. Drugs were diluted in supplemented tissue culture medium and added at increasing concentrations, with DMSO as a vehicle control. Cells were then incubated for either 48 hour or 72 hours in presence of the compound, Promega Titer Glo was added to the wells at the assay end point according to manufacturer's protocol. Luminescence was measured using Tropix TR717 Microplate luminometer. Percentage of viable cells is relative to vehicle (100%). As a complementary viability assay, eBioscience Fixable Viability Dye eFluor 660(65-0864) was used to stain dead cells and analyzed using flow cytometry.

[4] = tested on: paclitaxel resistant H460 cells; experiment: Zebrafish xenograft model; format: in vivo, Zebrafish (Danio rerio); conditions: 1 to 4 days post injection
Protocol: Total area signifies total h460 cell area in zebrafish.
Zebrafish (Danio rerio) were housed at the Sinnhuber Aquatic Research Laboratory at Oregon State University in accordance with Institutional Animal Care and Use Committee protocols. Adult 5D Tropical zebrafish were maintained under standard laboratory conditions of 28±1° C. on a 14 hr light/10 hr dark photoperiod in fish water consisting of reverse osmosis water supplemented with a commercially available salt solution (0.6%, Instant Ocean, UnitedPet Group, Inc., Blacksburg, Va., USA). Collected eggs were staged according to Kimmel et al. At 24 hours post fertilization (hpf), zebrafish embryos were maintained in E3 media with phenylthiourea (0.003%, Sigma, USA).
For transplantations, H460 cells were labeled with a CM-DiI dye (Thermo Fisher Sci.) according to the manufacturer's protocol and suspended to a concentration of 2×10^7 cells/mL. […]
For imaging, zebrafish xenografts were anesthetized by emersion in 0.2 mg/mL Tricaine E3 media and imbedded in 0.8% (w/v) low melting point agarose on a glass bottom 96-well plate. […] H460 cancer growth was analyzed using Fiji (Fiji is Just Imagej) software. […] Cancer area was calculated by creating a binary mask from thresholds with the Otsu algorithm and calculating the total area of the resulting segmented objects. […]

WT and Bcl-2−/− MEFs = experiment: Viability of WT and Bcl-2-/- MEFs; format: cell-based, mouse; conditions: indicated concentrations, 10% FBS
Protocol: FIG. 9E depicts effect of methotrexate in certain cancer cell types. Left Panel: Bcl-2 levels in WT and Bcl-2−/− MEFs. Right panel: MEF cells were exposed to indicated concentrations of Methotrexate in medium containing 10% FBS and viability was determined by cell titer glo assay.
Cell viability was determined using CellTiter Glo Luminescent Cell Viability Assay (Promega, Madison, Wis.) as per manufacturer instructions. DAPI stain was used to assess apoptosis. Colony forming assays were performed as described previously.

Bcl-2 loop domain = Bcl-2 loop domain (Homo sapiens, UniProt P10415); experiment: NMR titration of 15N-13C labeled Bcl-2 loop domain (HSQC chemical shift perturbation); conditions: for Kd: 0.2 mM Bcl-2 loop titrated with 0.2-5.4 mM MTX
[5] = biological target: T1, Nur77 interaction with Bcl-2 (Homo sapiens, UniProt P10415); experiment: Co-immunoprecipitation, competition with Nur77 for Bcl-2; format: binding; conditions: 10 μM MTX, 16 h, HEK293T cells
T1 construct: expressed in transfected cells; host or cells: HEK293T
Protocol: Methotrexate reduced the interaction of Nur-77 with BCl-2 domain upon co-incubation indicating methotrexate interacts with the same region of loop domain as does Nur-77.
For CoIP experiments, HEK293T cells were plated in a 6 well plate and transfected with indicated expression plasmids by lipofectamine. The total amount of DNA was maintained at 2.5 μg. After 12 h of transfection, cells were treated with DMSO or 10 μM MTX for 16 h. The cells were then lysed on ice using RIPA buffer with freshly added protease inhibitor cocktail (Complete, mini, EDTA-free protease inhibitor cocktail, Roche, Inc.). The lysis buffer contained either DMSO or 10 μM MTX. Cell lysates were incubated on ice for 30 min and then spun at 14,000 rpm for 30 min at 4° C. Cleared lysates were incubated with Bcl-2 antibody (sc-509, Santacruz) and incubated at 4° C. for 2-4 h end-over-end mixing. After incubation a volume of sepharose beads (sc-2003, Santacruz) were added to each sample and left end-over-end mixing overnight at 4° C. The beads were then washed four times with RIPA buffer containing either DMSO or 10 μM and then solubilized in laemmli buffer. Proteins were analyzed on 10-12% SDS-PAGE and immunoblotted with mouse polyclonal anti-Bcl-2 (sc-509, Santacruz), mouse polyclonal anti-GFP (33-2600, Thermofisher).

[6] = mice; cited from earlier work
[7] = low dose; cited from earlier work

Bcl-2 loop domain, sequence (P10415 29-90 limits assumed): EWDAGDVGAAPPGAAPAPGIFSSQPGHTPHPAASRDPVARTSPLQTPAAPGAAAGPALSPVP
T1 sequence (P10415 whole entry): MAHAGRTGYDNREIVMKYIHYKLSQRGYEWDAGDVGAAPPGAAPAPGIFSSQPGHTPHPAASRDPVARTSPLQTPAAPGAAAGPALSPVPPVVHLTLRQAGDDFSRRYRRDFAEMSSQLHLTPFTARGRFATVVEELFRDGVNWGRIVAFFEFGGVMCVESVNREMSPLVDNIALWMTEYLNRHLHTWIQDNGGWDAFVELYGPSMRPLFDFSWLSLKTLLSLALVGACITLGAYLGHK

Chemical shift perturbations of Bcl-2 loop domain upon titration (Bcl-2 loop domain; 15N-1H HSQC)	Hill coefficient, His55 (Bcl-2 loop domain; Hill model fit)	Hill coefficient, His58 (Bcl-2 loop domain; Hill model fit)	Kd (Bcl-2 loop domain; Kd from chemical shift perturbation of His55, Hill model fit)	Kd (Bcl-2 loop domain; Kd from chemical shift perturbation of His58, Hill model fit)	SMILES	Colony formation ability of H460 resistant vs parental line [1]	Colony forming ability of MDA-MB-468 paclitaxel resistant cells [2]	Viability of MDA-MB-468 doxorubicin resistant cells ([3]; 72 hour treatment)	Viability of MDA-MB-468 paclitaxel resistant vs parental cells ([3]; 72 hours)	Growth of paclitaxel resistant H460 cells in zebrafish [4]	Bcl-2 dependent induction of apoptosis in MEFs with or without Bcl-2 (WT and Bcl-2−/− MEFs)	Competition with Nur77 for interaction with Bcl-2 [5]	half-life [6]	bioavailability [7]
					CCOc1ccccc1NC(=O)c1cc(Cl)ccc1NC(=O)c1ccc(OC)cc1 [BFC1108, 5-chloro-N-(2-ethoxyphenyl)-2-[(4-methoxybenzoyl)amino]-benzamide]	reduced colony formation ability of resistant line preferentially	reduced colony forming ability of the paclitaxel resistant cells	reduced viability of doxorubicin resistant cells	preferentially killed by BFC1108 in a dose dependent manner					
residues 55-60	1.2	1.0	5.1 mM	11.4 mM	CN(Cc1cnc2nc(N)nc(N)c2n1)c1ccc(C(=O)N[C@@H](CCC(=O)O)C(=O)O)cc1 [MTX, (2S)-2-[[4-[(2,4 diaminopteridin-6-yl)methylmethylamino]benzoyl]amino] pentanedioc acid]					reduction in paclitaxel resistant H460 growth in vivo	Bcl-2 dependent induction of apoptosis by MTX was also seen in mouse embryonic fibroblast cells with or without Bcl-2	competition between MTX and Nur77 in interacting with the Bcl-2 protein could be seen	30 min	≤ 70%
